Experimental data from ChEMBL document CHEMBL1151982, “Natural products as tools for neuroscience: discovery and development of novel agents to treat drug abuse” (J Nat Prod, 2009).

What was measured:
Assay type in all cases: functional
[1] = molecular target: T1, Kappa-type opioid receptor (Homo sapiens, UniProt P41145); experiment: Agonist activity at kappa opioid receptor by [35S]GTPgammaS binding assay relative to (-)-U50,488H
[2] = molecular target: T1, Kappa-type opioid receptor; experiment: Agonist activity at kappa opioid receptor by [35S]GTPgammaS binding assay
[3] = molecular target: T1, Kappa-type opioid receptor; experiment: Antagonist activity at kappa opioid receptor by [35S]GTPgammaS binding assay

T1 sequence (P41145 whole entry): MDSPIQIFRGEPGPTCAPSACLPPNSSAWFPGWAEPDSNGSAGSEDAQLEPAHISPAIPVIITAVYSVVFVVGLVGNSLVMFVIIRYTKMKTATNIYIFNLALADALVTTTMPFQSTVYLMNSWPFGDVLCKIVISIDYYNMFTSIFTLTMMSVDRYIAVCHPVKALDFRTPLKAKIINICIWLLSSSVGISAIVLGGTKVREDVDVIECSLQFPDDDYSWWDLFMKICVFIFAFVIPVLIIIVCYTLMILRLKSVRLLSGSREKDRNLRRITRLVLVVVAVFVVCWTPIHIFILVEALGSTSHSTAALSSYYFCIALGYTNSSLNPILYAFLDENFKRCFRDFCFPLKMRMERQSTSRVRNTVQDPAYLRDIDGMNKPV

Structure (SMILES)	Emax [1]	EC50 [2]	Ki [3]
COC(=O)[C@@H]1C[C@H](OC(C)=O)C(=O)[C@H]2[C@@]1(C)CC[C@H]1C(=O)O[C@H]([C@]3(O)[C@H](OC)O[C@H](OC)[C@H]3O)C[C@]21C [SALVINICIN A]	80%	4.1 µM	–
COC(=O)[C@@H]1C[C@H](OC(C)=O)C(=O)[C@@H]2[C@@]3(C)C[C@@H]([C@]4(O)[C@@H](OC)O[C@@H](OC)[C@H]4O)CC(=O)[C@@H]3CC[C@]21C [SALVINICIN B]	–	–	> 1.9 µM
